Experimental data as given in US20260258050A1, “IMMUNOMODULATOR” (HITGEN INC., priority 2023, published 2026).

Columns and labels:
Human IL-17A [1] = target: T1, Human IL-17A (Homo sapiens, UniProt Q16552); assay: IL-17A enzyme-linked immunosorbent assay (competitive ELISA, IL-17A/IL-17Ra receptor-ligand binding); design: purchased Sino Biological Inc. 12047-H07B; conditions: human IL-17A coated plate, human IL-17Ra, read-out: IC50, inhibitory activity of compounds on human IL-17A
T1 sequence (Q16552 20-155 limits assumed): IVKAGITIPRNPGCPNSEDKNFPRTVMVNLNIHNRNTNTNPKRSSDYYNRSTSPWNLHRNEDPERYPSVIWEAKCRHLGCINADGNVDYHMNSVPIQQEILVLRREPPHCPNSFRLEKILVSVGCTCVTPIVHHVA
Protocol: Experimental Example 1 IL-17A Enzyme-Linked Immunosorbent Assay (ELISA)
The inhibitory effects of human IL-17A inhibitors on receptor-ligand binding were quantitatively determined by a competitive enzyme-linked immunosorbent assay (ELISA). The ELISA was performed through the following steps.
Human IL-17A (Sino Biological Inc., Cat #12047-H07B) was diluted with coating buffer (50 mM phosphate-buffered saline (PBS), pH 7.4) to give an IL-17A concentration of 0.2 μg/ml. 100 μL of the resulting solution was added to each well of a 96-well plate, and the plate was incubated at 37° C. for 30 min. In a blank group, 100 100 μL of the coating buffer was added instead of the IL-17A solution.
The plate was washed four times with 10 mM phosphate-buffered saline containing 0.05% Tween-20 (PBST, pH 7.4). 200 μL of PBST was used per well for each wash. After the final wash, the plate was tapped dry on absorbent paper.
Fresh 5% (w/v) skim milk solution was prepared before the experiment. For example, 5 g of skim milk powder (Bio-Rad, 170-6404) was completely dissolved in 100 mL of 10 mM PBST. 200 μL of the 5% (w/v) skim milk solution was added to each well, and the plate was incubated on a shaker at 25° C. for 30 min.
(S4) Preparation of 100× to-be-Tested Compound Solutions
During step (S3), the to-be-tested compound solutions were prepared, respectively. Each powdered compound was dissolved in dimethyl sulfoxide (DMSO) to reach a storage concentration of 10 mM. The to-be-tested compound solutions were then serially diluted four-fold with DMSO to obtain nine storage concentrations ranging from […].
(S6) Pre-incubation of IL-17A with to-be-tested compound solutions
89 μL of PBST and 1 μL of each of the to-be-tested compound solutions were added to each well and mixed. The plate was pre-incubated at 25° C. for 10 min. In the blank group and the control group, 1 μL of DMSO was added instead of the to-be-tested compound solutions.
(S7) Incubation with Human Interleukin-17 Receptor a (IL-17Ra)
10 μL of 16 nM human IL-17Ra (Sino Biological Inc., Cat #10895-H03H) was added, followed by incubation on a shaker at 25° C. for 30 min. The receptor solution was prepared in 10 mM PBST.
(S9) Incubation with Horseradish Peroxidase-Conjugated Antibody
100 μL of mouse anti-Fc tag horseradish peroxidase (HRP)-conjugated antibody (Sino Biological Inc., Cat #10702-MM01T-H) was added to each well. The plate was incubated on a shaker at 25° C. for 30 min. The antibody was diluted with 5% (w/v) skim milk solution at 1:5,000 (v/v).
100 μL of 3,3′,5,5′-tetramethylbenzidine (TMB) substrate solution (BD, Cat #555214) was added to each well. Substrate A and substrate B were freshly mixed at a volume ratio of 1:1 before use. The plate was incubated in the dark at 25° C. for 5-15 min.
(S12) Termination and Detection
The color reaction was terminated by addition of 2.5 M hydrochloric acid (HCl). Absorbance was measured at 450 nm using a BMG PHERStar microplate reader.
(S13) Calculation of Half-Maximal Inhibitory Concentration (IC50)
The relative percent residual activity at each compound concentration was calculated according to Equation 1. The IC50 value of each test compound was then calculated in GraphPad 6 using the equation for log(inhibitor) versus normalized response with variable slope, as shown in Equation 2.
relative percent residual activity (%)=[(absorbance of sample−absorbance of blank group)/(absorbance of control group−absorbance of blank group)]%. Equation 1: […]
The compounds prepared in the above examples were tested for IL-17A inhibitory activity according to the above method.

Human IL-17A [2] = target: T1, Human IL-17A; assay: Inhibition of human IL-17A protein-induced GROα/CXCL1 production in HT-29 cells; type: cell-based; design: purchased R&D 317-ILB; host or cells: added exogenously to HT-29 cells; conditions: 30 ng/mL human IL-17A protein, 48 h, GROα in supernatant by ELISA kit, read-out: Inhibitory IC50 of compounds on HT-29 cell GROα/CXCL1
Protocol: Experiment Example 3 Inhibition of Human IL-17A Protein-Induced GROα/CXCL1 Production in HT-29 Cells by Compounds
This assay was conducted to evaluate the ability of the compounds to inhibit human IL-17A protein-induced production of the chemokine growth-regulated oncogene alpha/C-X-C motif chemokine ligand 1 (GROα/CXCL1) in HT-29 cells.
Human colorectal adenocarcinoma epithelial HT-29 cells (Chengdu Zhongyuan Gongchuang Technology Co., Ltd.) were seeded into a 96-well plate at a density of 5×10^4 cells per well and were cultured overnight in an incubator at 37° C.
30 ng/mL of human IL-17A protein (R&D, #317-ILB) was mixed with gradient concentrations of the IL-17A small-molecule inhibitor, or with […] of a positive control IL-17A antibody (R&D, #AF-317-NA). These mixtures were incubated at 37° C. for 1 h and were then added to the plate. The mixtures were co-incubated with the HT-29 cells at 37° C. for 48 h. Thereafter, the level of GROα in the cell culture supernatant was determined using a GROα ELISA kit (Cisbio, #62HCXC1PEG).
The inhibitory activity of each compound was expressed as the half-maximal inhibitory concentration (IC50) for inhibition of GROα/CXCL1 production in HT-29 cells.

SMILES | IC50 (Human IL-17A [1]) [nM] | IC50 (Human IL-17A [2]) [nM]
Cc1[nH]nc2c1-c1cc(F)c(NC(=O)[C@@H](NC(=O)c3ccnn3CCCN3CCOCC3)C(C3CC3)C3CC3)cc1COCC2 [compound 92] | ≤ 50 | ≤ 100
Cc1[nH]nc2c1-c1cc(F)c(NC(=O)[C@@H](NC(=O)c3ccnn3CC3CC(F)(F)C3)C(C3CC3)C3CC3)cc1COCC2 [compound 64] | ≤ 50 | 100 to 500
Cc1[nH]nc2c1-c1cc(F)c(NC(=O)[C@@H](NC(=O)c3ccnn3C(C)C)C(C3CC3)C3CC3)cc1CCCC2 [compound 130] | ≤ 50 | 100 to 500
CCC(C)n1nccc1C(=O)N[C@H](C(=O)Nc1cc2c(cc1F)-c1c(n[nH]c1C)CCOC2)C(C1CC1)C1CC1 (single isomer, unassigned) [compound 123b] | ≤ 50 | 100 to 500
CCN1CCc2n[nH]c(C)c2-c2cc(F)c(NC(=O)[C@@H](NC(=O)c3ccnn3CC)C(C3CC3)C3CC3)cc2C1 [compound 157] | ≤ 50 | 100 to 500
Cc1[nH]nc2c1-c1cnc(NC(=O)[C@@H](NC(=O)c3ccnn3C(C)C(F)F)C(C3CC3)C3CC3)cc1COCC2 (single isomer, unassigned) [compound 190a] | ≤ 50 | 100 to 500
Cc1[nH]nc2c1-c1cc(F)c(NC(=O)[C@@H](NC(=O)c3conc3C(C)C)C(C3CC3)C3CC3)cc1CN(CC(F)F)CC2 [compound 180] | ≤ 50 | ≤ 100
CC(C)=C(F)C(=O)N[C@H](C(=O)Nc1cc2c(cc1F)-c1c(n[nH]c1C)CCOC2)C(C1CC1)C1CC1 [compound 232] | ≤ 50 | ≤ 100
C=C(F)C(=O)N[C@H](C(=O)Nc1cc2c(cc1F)-c1c(n[nH]c1C)CCOC2)C(C1CC1)C1CC1 [compound 233] | ≤ 50 | ≤ 100
Cc1[nH]nc2c1-c1cnc(NC(=O)[C@@H](NC(=O)c3ccnn3C(C)C)C(C3CC3)C3CC3)cc1CN(C1CCC1)C(=O)C2 [compound 197] | ≤ 50 | ≤ 100
CCC1Cc2n[nH]c(C)c2-c2cc(F)c(NC(=O)[C@@H](NC(=O)c3ccnn3C(C)C)C(C3CC3)C3CC3)cc2CO1 (single isomer, unassigned) [compound 120b] | ≤ 50 | 100 to 500
Cc1[nH]nc2c1-c1cc(F)c(NC(=O)[C@@H](NC(=O)c3ccnn3CCCF)C(C3CC3)C3CC3)cc1CN(CC(F)F)CC2 [compound 181] | ≤ 50 | ≤ 100
Cc1[nH]nc2c1-c1cc(F)c(NC(=O)[C@@H](NC(=O)c3ccnn3C(C)C)C(C3CC3)C3CC3)cc1CN(C1CCC(F)(F)CC1)CC2 [compound 175] | ≤ 50 | ≤ 100
Cc1[nH]nc2c1-c1cc(F)c(NC(=O)[C@@H](NC(=O)c3ccnn3C(C)C)C(C3CC3)C3CC3)cc1CN(CC(F)F)C(C)C2 (mixture of isomers) [compound 178] | ≤ 50 | ≤ 100
Cc1[nH]nc2c1-c1cc(F)c(NC(=O)[C@@H](NC(=O)c3ccnn3CC3(F)CC3)C(C3CC3)C3CC3)cc1COCC2 [compound 79] | 50 to 150 | 100 to 500
CSCC(C)n1nccc1C(=O)N[C@H](C(=O)Nc1cc2c(cc1F)-c1c(n[nH]c1C)CCOC2)C(C1CC1)C1CC1 (single isomer, unassigned) [compound 40a] | 50 to 150 | 100 to 500
CCC1Cc2n[nH]c(C)c2-c2cc(F)c(NC(=O)[C@@H](NC(=O)c3ccnn3C(C)C)C(C3CC3)C3CC3)cc2CO1 (single isomer, unassigned) [compound 120a] | 50 to 150 | 100 to 500
CSCC(C)n1nccc1C(=O)N[C@H](C(=O)Nc1cc2c(cc1F)-c1c(n[nH]c1C)CCOC2)C(C1CC1)C1CC1 (single isomer, unassigned) [compound 40b] | ≤ 50 | 100 to 500
Cc1[nH]nc2c1-c1cc(F)c(NC(=O)[C@@H](NC(=O)c3ccnn3CCCF)C(C3CC3)C3CC3)cc1CN(CC(F)F)C(=O)C2 [compound 172] | ≤ 50 | ≤ 100
CCn1nccc1C(=O)N[C@H](C(=O)Nc1cc2c(cc1F)-c1c(n[nH]c1C)CCOC2)C1CCCCC1 [compound 49] | ≤ 50 | 100 to 500
CCn1nccc1C(=O)N[C@H](C(=O)Nc1cc2c(cn1)-c1c(n[nH]c1C)CCOC2)C(C1CC1)C1CC1 [compound 53] | ≤ 50 | 100 to 500
Cc1[nH]nc2c1-c1cnc(NC(=O)[C@@H](NC(=O)c3ccnn3C(C)C(F)F)C(C3CC3)C3CC3)cc1COCC2 (single isomer, unassigned) [compound 190b] | 50 to 150 | 100 to 500
CCC(C)n1nccc1C(=O)N[C@H](C(=O)Nc1cc2c(cc1F)-c1c(n[nH]c1C)CCOC2)C(C1CC1)C1CC1 (single isomer, unassigned) [compound 123a] | ≤ 50 | 100 to 500
Cc1[nH]nc2c1-c1cc(F)c(NC(=O)[C@@H](NC(=O)c3conc3C(C)C)C(C3CC3)C3CC3)cc1CN(CC(F)F)C(=O)C2 [compound 171] | ≤ 50 | ≤ 100
Cc1[nH]nc2c1-c1cnc(NC(=O)[C@@H](NC(=O)c3ccnn3C3CC3)C(C3CC3)C3CC3)cc1CN(C1CC1)CC2 [compound 219] | ≤ 50 | ≤ 100
Cc1[nH]nc2c1-c1cc(F)c(NC(=O)[C@@H](NC(=O)c3ccnn3C(C)C)[C@H]3CC[C@H](C)CC3)cc1COCC2 [compound 45] | ≤ 50 | 100 to 500
C=C(F)C(=O)N[C@H](C(=O)Nc1cc2c(cn1)-c1c(n[nH]c1C)CCOC2)C(C1CC1)C1CC1 [compound 245] | ≤ 50 | ≤ 100
CC(C)=C(F)C(=O)N[C@H](C(=O)Nc1cc2c(cn1)-c1c(n[nH]c1C)CCOC2)C(C1CC1)C1CC1 [compound 244] | ≤ 50 | ≤ 100
